Like-named read-outs stand apart in the source and are kept apart here.
What was measured:
[1] = water solubility of the sodium salt; type: physicochemical
Swiss Albino mice [2] = assay: Acute Intravenous Toxicity Studies in Mice; type: in vivo; conditions: N-methylglucamine (meglumine) salt, i.v. lateral tail vein, 1 ml./min, 7 day observation, Litchfield and Wilcoxon
Procedure: (§1) Toxicity evaluations by three different techniques were carried out on solutions of the N-methylglucamine salts of 3-acetamido-5-(4,4-bishydroxymethyl-2-oxazolinyl)-2,4,6-triiodobenzoic acid and 3-acetamido-5-(4-methyl-4-hydroxymethyl-2-oxazolinyl)-2,4,6-triiodobenzoicacid. The techniques utilized are outlined below.
I. Acute Intravenous Toxicity Studies in Mice
Swiss Albino mice (Charles River) were dosed in the lateral tail vein with solutions of the iodinated compounds containing 50.4% iodine in the case of 3-acetamido-5-(4,4-bishydroxymethyl-2-oxazolinyl)-2,4,6-triiodobenzoic acid and 28.2% iodine in the case of 3-acetamido-5-(4-methyl-4-hydroxymethyl-2-oxazolinyl)-2,4,6-triiodobenzoicacid, injected at the rate of 1 ml./min. […] The LD50 values were calculated by the method of Litchfield and Wilcoxon (J. of Pharmac. and Exptl. Therap. 96: 99-113, 1949).

Swiss Albino mice [3] = assay: Intracerebral Toxicity in Mice; type: in vivo; conditions: N-methylglucamine (meglumine) salt, 7 day observation, Litchfield and Wilcoxon
Procedure: as §1
II. Intracerebral Toxicity in Mice
Swiss Albino mice (Charles River) were used. Fixed volumes of solutions of various concentrations of the iodinated compounds were injected intracerebrally via a 27 gauge needle, (1/4 inch length) according to the method of Haley, et al. (Br. J. of Pharmac. 12:12-15, 1957). The animals were observed immediately after injections and daily throughout a 7 day observation period. The LD50 values were calculated by the method of Litchfield and Wilcoxon (J. of Pharmac. and Exptl. Therap. 96:99-113, (1949)).

Sprague Dawley rats = assay: Intracisternal Toxicity in Rats; type: in vivo; conditions: N-methylglucamine (meglumine) salt, 2 day observation, Litchfield and Wilcoxon
Procedure: as §1
III. Intracisternal Toxicity in Rats
Sprague Dawley (Carworth) rats were used. The method used was a variation of the procedure outlined by Melartin et al. (Invest. Rad. 5:13-21, 1970). After dosing, the animals were housed individually, and observed for immediate reactions and periodically for a 2 day observation period. The LD50 values were calculated according to the method of Litchfield and Wilcoxon, (J. of Pharmac. and Exptl. Therap. 96:[…], 1949).

[4] = read-out: water solubility of the sodium salt

solubility [1, 4] [mg/mL]	Structure (SMILES)	LD50 of Meglumine Salt, I.V. (Mice) (Swiss Albino mice [2])	LD50 of Meglumine Salt, Intracerebral (Mice) (Swiss Albino mice [3])	LD50 of Meglumine Salt, Intracisternal (Rats) (Sprague Dawley rats)	solubility ([1]; w/v not given, read-out: solubility of the sodium salt) [mg/mL]
~800	Nc1c(I)c(C(=O)O)c(I)c(C(=O)NC(CO)(CO)CO)c1I [Example 3, 5-Amino-N-[tris(hydroxymethyl)methyl]-2,4,6-triiodoisophthalamic Acid]				
~830	CC(CO)(CO)NC(=O)c1c(I)c(N)c(I)c(C(=O)O)c1I [Example 6, 5-Amino-N-[2-(1,3-dihydroxy-2-methyl)propyl]-2,4,6-triiodoisophthalamic Acid]				
	CC(=O)Nc1c(I)c(C(=O)O)c(I)c(C2=NC(C)(CO)CO2)c1I (stereo not shown) [Example 8, 3-Acetamido-5-(4-methyl-4-hydroxymethyl-2-oxazolinyl)-2,4,6-triiodobenzoic Acid]	5,500 mg. contained iodine/kg. anima	280 mg. contained iodine/kg. anima	28 mg. contained iodine/kg. anima	738

Structure (SMILES)	solubility [1, 4] [mg/mL]	LD50 of Meglumine Salt, I.V. (Mice) (Swiss Albino mice [2])	LD50 of Meglumine Salt, Intracerebral (Mice) (Swiss Albino mice [3])	LD50 of Meglumine Salt, Intracisternal (Rats) (Sprague Dawley rats)	solubility ([1]; w/v not given, read-out: solubility of the sodium salt) [mg/mL]
CC(=O)Nc1c(I)c(C(=O)O)c(I)c(C2=NC(CO)(CO)CO2)c1I [Example 4, 3-Acetamido-5-(4,4-bis(hydroxymethyl)-2-oxazolinyl)-2,4,6-triiodobenzoic Acid]	958	5,522 mg. contained iodine/kg. anima	485 mg. contained iodine/kg. anima	55 mg. contained iodine/kg. anima	

From patent US4066743A, “X-ray contrast agents” (Mallinckrodt, Inc., priority 1976, dated 1978)
